Source: patent US11926826B2, “Twist signaling inhibitor compositions and methods of using the same” (City of Hope, priority 2016, dated 2024)
[iaB] = inverted abasic ribose cap; [2sU] = 2-thio-2'-deoxyuridine; d = 2'-deoxy (DNA); m = 2'-O-methyl; r = 2'-OH (RNA)

Key:
TWIST1 [1] = test: TWIST1 knockdown after Lipofectamine 2000 transfection in SUM 1315; assay type: cell-based, human
Procedure: (§1) Cell Culture, Transfection, and Stable Cell Line Production. SUM 1315 breast cancer cells were obtained from ATCC (Manassas, VA). Cells were maintained at 37° C., 5% CO2, and 90% humidity in a tissue culture incubator. Media for SUM 1315 cells consisted of a 50-50 mixture of DMEM and F12 media, supplemented with 5 μg/ml insulin, 10 ng/ml EGF, 5% fetal bovine serum, and 1% penicillin/streptomycin. Cells were passaged using 0.25% trypsin (Genesee Scientific, San Diego, CA) every 2-3 days as they reached confluency. […]
(§2) Quantitative PCR. […] RNA quantity and quality was measured and analyzed (with 260/280 nm and 260/230 nm spectra measurements) using a NanoDrop ND-1000 (Thermo Fisher Scientific, Waltham, MA). […] Quantitative RT-PCR was performed in quadruplicate using Maxima SYBR Green Master Mix (Thermo Fisher Scientific, Waltham, MA) in 25 μl reactions. […] Data were analyzed using Bio-Rad iQ5 software using the 2^−ΔΔ^Ct method and normalized to Actin. […]
Western Blot. […] Cells were pelleted, lysed in RIPA buffer, and protein concentration was determined using the BCA Assay (Thermo Fisher Scientific, Waltham, MA). […]

N-Cadherin mRNA = test: qPCR after YTZ3-15 delivery of siTwist in SUM 1315: N-Cadherin; assay type: cell-based, human; settings: delivered via YTZ3-15; after seven days
Procedure: as §1, §2

TWIST [2] = test: TWIST knockdown after MSN delivery of siRNA in ovarian cancer cell lines; assay type: cell-based
Procedure: MSN design and delivery. Mesoporous silica nanoparticles (MSNs) were synthesized utilizing the sol-gel method as described previously. First, 250 mg 95% cetyltrimethylammonium bromide (CTAB) was dissolved in 120 ml of water with 875 μl 2M sodium hydroxide solution, at 80° C. Next, 1.2 ml of 98% tetraethylorthosilicate was added. After 15 min, 300 μl of 42% 3-(trihydroxysilyl) propyl methylphosphonate was added, and the mixture was stirred 2 hr. Particles were collected using centrifugation and washed with methanol. Acidic methanol was then used to remove any remaining CTAB surfactants. Zeta potential at 50 μg/mL was 43.75 mV [14]. All chemicals were obtained from Aldrich (St. Louis, MO). Particles were ˜120 nm in diameter, with 2.5 nm pores. Low molecular weight (1.8 kD branched polymer) polyethyleneimine (PEI) was electrostatically attached to the particle surface to provide a positive change to attract negatively charged siRNA [21]. To complex siRNA for in vitro experiments, 10 μl siRNA at 10 μM was mixed with 70 ul MSNs at 500 μg/ml and 20 μl water, and the mixture was incubated overnight at 4° C. on a roller. The following day, 100 μl of the MSN-siRNA complexes was added to each well of a 6-well plate containing 1900 μl normal medium.
(§3) Western Blotting. Following siRNA treatment, cells were pelleted and lysed in RIPA buffer. Protein concentration was determined by BCA assay (Thermo Fisher). Following SDS-PAGE, protein was transferred to Amersham PVDF membrane (Genesee Scientific) using a BioRad Trans-Blot SD semi-dry transfer unit. Blots were then blocked in milk for one hour at room temperature or overnight at 4° C. Incubation with primary antibody took place for one hour at room temperature or overnight at 4° C. Antibodies were diluted in 5% milk, with 0.1-0.2% Tween-20. Antibodies used were TWIST 2c1a (Santa Cruz Biotechnology, Dallas, TX) at 1:250-1:500 dilution, β-Actin, A1978 (Sigma Aldrich, St. Louis, MO) at 1:2500-1:5000 dilution; and Horseradish Peroxidase (HRP) conjugated anti-mouse secondary antibodies. […]

TWIST [3] = test: TWIST knockdown after YTZ3-15 delivery of siRNA in ovarian cancer cell lines; assay type: cell-based
Procedure: PAMAM dendrimer design and delivery. The polyamidoamine (PAMAM) dendrimer used in this study is the […] third generation dendrimer, illustrated in FIG. 16A and previously described. To complex the dendrimer with siRNA, YTZ3-15 at 240 μM was mixed with […] in OptiMEM Low Serum Medium (Thermo Fisher). Upon complexing with siRNA, dendrimers form micelle structures with siRNA at the surface and the hydrophobic tails sequestered in the core (FIG. 16B). 14.6 μl YTZ3-15 and 10 μl siRNA were used per well of a 6-well plate. Final concentrations of YTZ3-15 and siRNA once added to cells were 1.75 μM and 50 nm, respectively. Where indicated, 3.5 μM YTZ3-15 and 100 nm siRNA were used for Ovcar8.
Western Blotting. Following siRNA treatment, cells were pelleted and lysed in RIPA buffer. Protein concentration was determined by BCA assay (Thermo Fisher). Following SDS-PAGE, protein was transferred to Amersham PVDF membrane (Genesee Scientific) using a BioRad Trans-Blot SD semi-dry transfer unit. Blots were then blocked in milk for one hour at room temperature or overnight at 4° C. Incubation with primary antibody took place for one hour at room temperature or overnight at 4° C. Antibodies were diluted in 5% milk, with 0.1-0.2% Tween-20. Antibodies used were TWIST 2c1a (Santa Cruz Biotechnology, Dallas, TX) at 1:250-1:500 dilution, β-Actin, A1978 (Sigma Aldrich, St. Louis, MO) at 1:2500-1:5000 dilution; and Horseradish Peroxidase (HRP) conjugated anti-mouse secondary antibodies. For film-based westerns, Blue Devil film (Genesee Scientific) and ECL Plus chemiluminescent substrate (Thermo Fisher) were used to detect protein. For digital westerns, the Syngene Pxi4 digital blot imager and Michigan Diagnostics FemtoGlow chemilumescent substrate were used.

Vimentin mRNA = test: qPCR after YTZ3-15 delivery of siTwist in SUM 1315: Vimentin; assay type: cell-based, human; settings: delivered via YTZ3-15; after one day
Procedure: as §1, §2

TWIST [4] = test: TWIST knockdown after Lipofectamine 2000 transfection in A2780R (western blot); assay type: cell-based; settings: over three days post transfection
Procedure: Cell Culture. A2780R and all derivatives of Ovcar8 were grown in RPMI 1640 (Genesee Scientific, San Diego, CA) in a tissue culture incubator at 37° C., 5% CO2, and 90% humidity. Growth medium was supplemented with 10% fetal bovine serum and 1% penicillin/streptomycin. Cells were passaged every 2-4 days using 0.25% trypsin (Genesee Scientific). Where indicated, cells were transfected with Lipofectamine 2000 (Thermo Fisher, Waltham, MA) according to the manufacturer's instructions. A2780R cells are a cisplatin resistant derivative of A2780.
as §3

TWIST1 [5] = test: TWIST1 knockdown after Lipofectamine 2000 transfection of siRNA in MDA-MB-435S cells (western blot); assay type: cell-based, human; settings: unmodified vs passenger-strand modified si419
Procedure: Transient transfection of MDA-MB-435S GFP+ffluc was carried out using LIPOFECTAMINE® 2000 (Thermo Fisher Scientific, Waltham, MA) according to the manufacturer's instructions. LIPOFECTAMINE® 2000 transfection was used to confirm the functionality of the siRNA (si419 and si494) prior to testing their efficacy with MSNs. Transfection of siRNA with MSNs was carried out by incubating the MSNs with the siRNA overnight at 4° C. while rotating the tube constantly. The mixture consisted of 7 parts MSN (diluted to 500 ng/ul in sterile PBS) to 1 part siRNA (diluted to 10 uM). The final concentration for of MSNs and siRNA applied to cells was 17.5 ng/ul and 50 nM, respectively.
Western Blot. Following siRNA treatment described above, cells were lifted from tissue culture wells with 0.25% trypsin, pelleted, and lysed in RIPA buffer. Protein concentration was determined using a BCA Assay (Thermo Fisher Scientific). A total of 30 μg of protein per lane was run on 4% stacking and 12% resolving polyacrylamide gels. Following gel electrophoresis, protein was transferred to Immobilon-P PVDF membrane (Millipore, Billerica, MA) using a Trans-Blot SD Semi-Dry Transfer Cell (Bio-Rad, Hercules, CA). Membranes were then blocked with 5% dry milk dissolved in 1×PBS with 0.1% Tween-20. Antibodies were diluted in blocking buffer (1:250 for anti-TWIST1 and 1:2,500 for anti-Actin). […]

Ov8GFP-TWIST1 cells = test: SRB assay, cisplatin plus PI3K inhibitor LY294002; assay type: cell-based, human
Procedure: Sulphorhodamine B assays. Cells were plated at 5,000 per well in normal medium in 96 well plates (100 μL/well), n=6 per drug concentration, per condition. Cells were allowed to adhere overnight, and then cisplatin was added. Cisplatin was prepared at 2× concentration in 100 μL normal medium, and then added to cells to yield 200 μL at 1×. Following 3 day incubation with cisplatin, medium was removed and cells were fixed with 10% trichloroacetic acid (TCA, 100 μL/well) at 4° C. for 1 hr. TCA was then removed and wells were rinsed with 200 μl water and allowed to air dry 10 min. […] Plates were air dried and excess SRB adhered to the walls of the wells was removed with a cotton swab. Finally, SRB was solubilized in 10 mM Tris base (200 μL/well) and absorbance was measured at 570 nm on a SpectraMax Plus plate reader (Molecular Devices, Sunnyvale, CA). Readings for each condition were normalized to untreated wells from the same condition. Cisplatin concentrations were adjusted to fit experimental demands. […] For Akt studies, the PI3K inhibitor LY294002 was used to inhibit Akt activation (FIGS. 25A-25D), and was obtained from Cell Signaling Technology (Danvers, MA).

si494: anti-TWIST siRNA; passenger 5′-GCGACGAGCUGGACUCCAA-3′ (SEQ ID No: 3), guide 5′-UUGGAGUCCAGCUCGUCGCUU-3′ (SEQ ID No: 4) (listed as RNA, chemistry not fully specified)
TWIST1 knockdown (protein and mRNA) (TWIST1 [1]): slightly more knockdown than siTwistA | N-Cadherin mRNA decrease (N-Cadherin mRNA): approximately 90% | TWIST knockdown (TWIST [2]; A2780R and Ovcar8, loaded onto MSNs): robust TWIST knockdown lasting one week post transfection | TWIST knockdown (TWIST [3]; A2780R): successfully knocked down TWIST | TWIST knockdown (TWIST [3]; Ovcar8, double the usual dose (100 nM siRNA)): minimal | Vimentin mRNA level (Vimentin mRNA): nearly undetectable | TWIST expression (TWIST [4]): completely inhibit TWIST expression

si419H: chemically modified si419 duplex: 2′-O-methyl and inverted abasic ribose on passenger strand (SEQ ID NO:11; guide SEQ ID NO:12) (sense GGACAAGCUGAGCAAGAUU; antisense AAUCUUGCUCAGCUUGUCCUU; siRNA; sense: sugars from the 5' end r17 m2, [iaB] at 5' end, 3' end, backbone not given here; antisense: sugars from the 5' end r16 d1 r4, [2sU] at 17, backbone not given here)
TWIST knockdown (TWIST [2]; Ovcar8-IP, MSNs): robust knockdown of TWIST even after 24 hours | knockdown (efficiency, FIG. 6) (TWIST1 [5]): approximately 80%

O=c1cc(N2CCOCC2)oc2c(-c3ccccc3)cccc12 [LY294002]
greater cell death vs cisplatin alone (Ov8GFP-TWIST1 cells; combination with 5 μM cisplatin): 15% | greater cell death vs cisplatin alone (Ov8GFP-TWIST1 cells; combination with 10 μM cisplatin): 25%
